According to ChEMBL document CHEMBL2073915, “Broad-spectrum modulation of ATP-binding cassette transport proteins by the taxane derivatives ortataxel (IDN-5109, BAY 59-8862) and tRA96023” (Cancer Chemother Pharmacol, 2004):

How the values were obtained:
Type in all cases: functional, cell-based
Conditions in all cases: mcf7r
[1] = target: T1, ATP-dependent translocase ABCB1 (Homo sapiens, UniProt P08183); test: TP_TRANSPORTER: efflux of 3uM mitoxantrone in the presence of tRA96023 at a concentration of 10uM in MCF7/R cells
[2] = target: T1, ATP-dependent translocase ABCB1; test: TP_TRANSPORTER: efflux of 3uM mitoxantrone by Fumitremorgin C at 10uM in MCF7/R cells
[3] = target: T1, ATP-dependent translocase ABCB1; test: TP_TRANSPORTER: efflux of 3uM mitoxantrone in the presence of Probenecid at 1mM in MCF7/R cells
[4] = target: T1, ATP-dependent translocase ABCB1; test: TP_TRANSPORTER: efflux of mitoxantrone (Mitoxantrone: 3uM) in the presence of Ortataxel at a concentration of 10uM in MCF7/R cells
[5] = target: T1, ATP-dependent translocase ABCB1; test: TP_TRANSPORTER: efflux of 3uM mitoxantrone in the presence of PSC-833 (Valspodar) at a concentration of 2.5uM in MCF7/R cells

T1 sequence (P08183 whole entry): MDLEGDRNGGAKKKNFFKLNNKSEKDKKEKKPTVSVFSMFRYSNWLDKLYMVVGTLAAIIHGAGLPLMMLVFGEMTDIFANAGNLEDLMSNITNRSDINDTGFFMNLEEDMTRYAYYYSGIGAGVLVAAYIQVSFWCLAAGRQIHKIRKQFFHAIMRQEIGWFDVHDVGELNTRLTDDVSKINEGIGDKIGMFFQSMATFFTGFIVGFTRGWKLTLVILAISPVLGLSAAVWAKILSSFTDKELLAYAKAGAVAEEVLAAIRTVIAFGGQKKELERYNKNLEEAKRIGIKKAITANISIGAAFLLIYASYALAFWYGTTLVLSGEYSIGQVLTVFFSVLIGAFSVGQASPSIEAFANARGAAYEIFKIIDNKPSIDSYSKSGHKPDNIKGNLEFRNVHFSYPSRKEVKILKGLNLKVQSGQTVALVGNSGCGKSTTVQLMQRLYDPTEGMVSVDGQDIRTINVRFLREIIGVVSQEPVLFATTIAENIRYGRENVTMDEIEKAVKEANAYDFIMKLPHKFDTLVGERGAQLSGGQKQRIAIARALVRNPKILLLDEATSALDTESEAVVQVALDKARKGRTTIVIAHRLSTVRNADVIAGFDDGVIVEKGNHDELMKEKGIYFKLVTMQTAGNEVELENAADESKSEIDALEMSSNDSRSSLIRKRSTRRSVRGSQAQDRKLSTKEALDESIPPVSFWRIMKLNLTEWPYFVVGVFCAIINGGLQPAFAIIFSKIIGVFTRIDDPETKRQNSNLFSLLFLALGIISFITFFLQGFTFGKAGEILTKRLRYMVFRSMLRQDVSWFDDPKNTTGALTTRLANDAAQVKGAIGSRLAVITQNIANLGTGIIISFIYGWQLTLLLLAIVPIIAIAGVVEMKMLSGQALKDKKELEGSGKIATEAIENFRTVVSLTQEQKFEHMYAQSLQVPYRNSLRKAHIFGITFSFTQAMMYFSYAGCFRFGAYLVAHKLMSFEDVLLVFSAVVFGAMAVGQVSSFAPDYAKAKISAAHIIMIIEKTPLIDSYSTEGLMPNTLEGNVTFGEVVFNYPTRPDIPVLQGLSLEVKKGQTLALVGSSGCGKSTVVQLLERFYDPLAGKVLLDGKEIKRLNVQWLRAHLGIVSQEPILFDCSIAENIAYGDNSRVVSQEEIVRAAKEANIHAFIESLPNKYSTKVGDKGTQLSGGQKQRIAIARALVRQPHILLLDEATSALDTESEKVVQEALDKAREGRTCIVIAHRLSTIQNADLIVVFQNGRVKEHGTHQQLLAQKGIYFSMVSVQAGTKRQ

## CC(=O)O[C@H]1C(=O)[C@@]2(C)C([C@H](OCc3ccccc3)C3(O)C[C@H](OC(C)=O)C(C)=C1C3(C)C)[C@]1(OC(C)=O)CO[C@@H]1C[C@@H]2OC(=O)/C=C/c1ccc(C(=O)c2ccccc2)cc1 (stereo not given in full)
[1]
  Activity: inhibitor [+]

## COc1ccc2c3c([nH]c2c1)[C@H](C=C(C)C)N1C(=O)[C@@H]2CCCN2C(=O)[C@@H]1C3 [FUMITREMORGIN]
[2]
  Activity: is not an inhibitor [-]

## CCCN(CCC)S(=O)(=O)c1ccc(C(=O)O)cc1 [PROBENECID]
[3]
  Activity: is not an inhibitor [-]

## CC(=O)O[C@H]1C(=O)[C@@]2(C)[C@H]([C@H](OC(=O)c3ccccc3)[C@]34OC(=O)O[C@H]3[C@H](OC(=O)[C@H](O)[C@H](CC(C)C)NC(=O)OC(C)(C)C)C(C)=C1C4(C)C)[C@]1(OC(C)=O)CO[C@@H]1C[C@@H]2O [ORTATAXEL]
[4]
  Activity: inhibitor [+]

## C/C=C/C[C@@H](C)C(=O)[C@H]1C(=O)N[C@@H](C(C)C)C(=O)N(C)CC(=O)N(C)[C@@H](CC(C)C)C(=O)N[C@@H](C(C)C)C(=O)N(C)[C@@H](CC(C)C)C(=O)N[C@@H](C)C(=O)N[C@H](C)C(=O)N(C)[C@@H](CC(C)C)C(=O)N(C)[C@@H](CC(C)C)C(=O)N(C)[C@@H](C(C)C)C(=O)N1C [VALSPODAR]
[5]
  Activity: inhibitor [+]
